ChEMBL document CHEMBL3217457, “Carbazolepyrrolo[2,1-c][1,4]benzodiazepine conjugates: design, synthesis, and biological evaluation” (Medchemcomm, 2011)
Calls of active or inactive are those of the source. The calls are words filed in the database; no cut-off is given here.

Key:
MCF7 [1] = test: Cell cycle arrest in human MCF7 cells assessed as accumulation at G0 phase at 4 uM after 24 hrs by propidium iodide staining based flow cytometry (reference value: 2.77%); type: functional
MCF7 [2] = test: Downregulation of CDK4 protein expression in human MCF7 cells at 4 uM after 24 hrs by Western blot analysis; type: functional, cell-based
PC-3 [3] = test: Growth inhibition of human PC3 cells; type: functional
MCF7 [4] = test: Induction of apoptosis in human MCF7 cells assessed as pRb protein expression at 4 uM after 24 hrs by Western blot analysis; type: functional, cell-based
SiHa = test: Growth inhibition of human SiHa cells; type: functional
A2780 = test: Growth inhibition of human A2780 cells; type: functional
MCF7 [5] = test: Induction of apoptosis in human MCF7 cells assessed as Apoalert DNA fragmentation at 4 uM after 24 hrs by TUNEL assay; type: functional, cell-based
MCF7 [6] = test: Cell cycle arrest in human MCF7 cells assessed as accumulation at G1 phase at 4 uM after 24 hrs by propidium iodide staining based flow cytometry (reference value: 57.98%); type: functional
[7] = Growth inhibition of human Gurav cells; type: functional
PC-3 [8] = test: Anticancer activity against human PC3 cells xenografted in NOD-SCID mouse assessed as decrease in tumor weight at 20 mg/kg, iv q4d on days 1, 5 and 9; type: functional, organism-based; set-up: dose 20 mg/kg
MCF7 [9] = test: Downregulation of cyclin D1 protein expression in human MCF7 cells at 2 to 4 uM after 24 hrs by Western blot analysis; type: functional, cell-based
MCF7 [10] = test: Induction of apoptosis in human MCF7 cells assessed as procaspase-7 cleavage at 4 uM after 24 hrs by Western blot analysis; type: functional, cell-based
A549 = test: Growth inhibition of human A549 cells; type: functional
MCF7 [11] = test: Upregulation of JNK1/2 protein expression in human MCF7 cells at 4 uM after 24 hrs by Western blot analysis; type: functional, cell-based
KB = test: Growth inhibition of human KB cells; type: functional
MCF7 [12] = test: Cell cycle arrest in human MCF7 cells assessed as accumulation at G2/M phase at 4 uM after 24 hrs by propidium iodide staining based flow cytometry (reference value: 24.95%); type: functional
Mus musculus [13] = test: Toxicity in NOD-SCID mouse xenografted with human PC3 cells assessed as mortality at 20 mg/kg, iv q4d on days 1, 5 and 9; type: organism-based, PC-3; set-up: dose 20 mg/kg, route intravenous; details: in vivo
Mus musculus [14] = test: Toxicity in NOD-SCID mouse xenografted with human PC3 cells assessed as weight loss at 20 mg/kg, iv q4d on days 1, 5 and 9; type: organism-based, PC-3; set-up: dose 20 mg/kg, route intravenous; details: in vivo
[15] = Toxicity in iv dosed NOD-SCID mouse xenografted with human PC3 cells assessed as maximum tolerated dose administered q4d on days 1, 5 and 9; type: organism-based, PC-3; details: in vivo
HOP-62 = test: Growth inhibition of human HOP62 cells; type: functional
MCF7 [16] = test: Cytotoxicity against human MCF7 cells assessed as decrease in cell viability at 2 to 16 uM after 6 to 48 hrs by MTT assay; type: functional, cell-based
MCF7 [17] = test: Cell cycle arrest in human MCF7 cells assessed as accumulation at S phase at 4 uM after 24 hrs by propidium iodide staining based flow cytometry (reference value: 14.30%); type: functional
COLO 205 = test: Growth inhibition of human COLO205 cells; type: functional
MCF7 [18] = test: Downregulation of CREB protein expression in human MCF7 cells at 4 uM after 24 hrs by Western blot analysis; type: functional, cell-based
MCF7 [19] = test: Cell cycle arrest in human MCF7 cells assessed as accumulation at G0/G1 phase at 4 uM after 24 hrs by propidium iodide staining based flow cytometry (reference value: 60.75%); type: functional
MCF7 [20] = test: Antiproliferative activity against human MCF7 cells assessed as cell proliferation at 4 uM after 24 hrs by BrdU incorporation assay (reference value: 100%); type: functional; details: MCF7, 24 h, read-out: Activity
MCF7 [21] = test: Growth inhibition of human MCF7 cells; type: functional
MCF7 [22] = test: Cytotoxicity against human MCF7 cells assessed as decrease in cell viability at 4 uM after 24 hrs by MTT assay; type: functional, cell-based
MCF7 [23] = test: Downregulation of Jun B protein expression in human MCF7 cells at 4 uM after 24 hrs by Western blot analysis; type: functional, cell-based
Calf thymus DNA = test: Binding affinity to calf thymus DNA assessed as change in melting temperature at compound to DNA ratio of 1:5 after 18 hrs by thermal denaturation analysis; type: nucleic-acid assay; details: Bos taurus
MCF7 [24] = test: Downregulation of c-Jun protein expression in human MCF7 cells at 4 uM after 24 hrs by Western blot analysis; type: functional, cell-based
ZR-75-1 = test: Growth inhibition of human ZR-75-1 cells; type: functional
MCF7 [25] = test: Upregulation of Bax protein expression in human MCF7 cells at 4 uM after 24 hrs by Western blot analysis; type: functional, cell-based
MCF7 [26] = test: Upregulation of PARP protein expression in human MCF7 cells at 4 uM after 24 hrs by Western blot analysis; type: functional, cell-based
MCF7 [27] = test: Upregulation of p53 protein expression in human MCF7 cells at 4 uM after 24 hrs by Western blot analysis; type: functional, cell-based
MCF7 [28] = test: Cytotoxicity against human MCF7 cells by ATP-dependent cell viability assay; type: functional, cell-based
PC-3 [29] = test: Anticancer activity against human PC3 cells xenografted in NOD-SCID mouse assessed as decrease in tumor volume at 20 mg/kg, iv q4d on days 1, 5 and 9; type: functional, organism-based; set-up: dose 20 mg/kg

For COc1ccc(-c2ccc3c(c2)c2cc(-c4ccc(OC)cc4)ccc2n3CCCCN2CCN(CCCCOc3cc4c(cc3OC)C(=O)N3CCC[C@H]3C=N4)CC2)cc1, the Activity (MCF7 [1]) was 25.31%, the inhibition (MCF7 [2]) was “Active” and the GI50 (PC-3 [3]) was 10 nM. The Activity (MCF7 [4]) was “Active”, the GI50 (SiHa) was 110 nM and the GI50 (A2780) was 10 nM. For the same molecule, the Activity (MCF7 [5]) was “Active”, the Activity (MCF7 [6]) was 63.03% and the GI50 [7] was 110 nM. For the same molecule, the inhibition (PC-3 [8]) was “Active”, the inhibition (MCF7 [9]) was “Active” and the Activity (MCF7 [10]) was “Active”. The GI50 (A549) was 90 nM, the Activity (MCF7 [11]) was “Active” and the GI50 (KB) was 100 nM. For the same molecule, the Activity (MCF7 [12]) was 6.2%, the Activity (Mus musculus [13]) was “Non-toxic” and the Activity (Mus musculus [14]) was “Non-toxic”. For the same molecule, the MTD [15] was less than 50 mg/kg, the GI50 (HOP-62) was 10 nM and the inhibition (MCF7 [16]) was “Active”. For the same molecule, the Activity (MCF7 [17]) was 5.44%, the GI50 (COLO 205) was 70 nM and the inhibition (MCF7 [18]) was “Active”. The Activity (MCF7 [19]) was 88.34%, the growth at 4 µM (MCF7 [20]) was 28% and the GI50 (MCF7 [21]) was 10 nM. The inhibition (MCF7 [22]) was “Active”, the inhibition (MCF7 [23]) was “Active” and the ΔTm (Calf thymus DNA) was 10.2 °C. The inhibition (MCF7 [24]) was “Active”, the GI50 (ZR-75-1) was 120 nM and the Activity (MCF7 [25]) was “Active”. The Activity (MCF7 [26]) was “Active”, the Activity (MCF7 [27]) was “Active” and the inhibition (MCF7 [28]) was “Active”. The inhibition (PC-3 [29]) was “Active”.
